Measured values published in patent publication US9957311B2, “Surface-binding peptide” (TIKOMED AB, priority 2013, dated 2018).
Entries after “also recorded” stand apart in the source; their conditions may differ. One block for each substance: values may come before it.

Legend:
[1] = Binding of IP-10 derived short peptides to TiO2 P25 particles, absorbance at 206 nm (Experiment 2); conditions: Experiment 2, 50 μg/ml peptide, 25 mg TiO2, 3 h room temperature
Protocol: 5 mg of eleven peptides (Table 2) were dissolved with 1 ml of water for molecular biology (Sigma-Aldrich, St. Louis, Mo., USA). Working solutions of the different peptides were diluted further with phosphate buffered saline (PBS) (PAA Laboratories GmbH, Pasching, Austria) to 50 μg/ml. 25 mg of TiO2 (P25 from Degussa and P90 from Sigma-Aldrich) were used for the studies. Briefly, 250 μl of peptide solution was incubated with 25 mg of TiO2 powder with different particle size (P25 and P90) in an orbital shaker (IKA Vibrax VXR basic, Staufen, Germany) for 3 h at room temperature. Different controls were used and processed in parallel with the other samples: solutions with peptides alone, PBS alone and P25/P90 in PBS. After this time, all the samples were centrifuged at 13.000×g for 3 min at 20° C. 100 μl of the supernatant solution was carefully collected and placed in a 96-well UV plate and read with PowerWave™ microplate spectrophotometer from BioTek. Absorbances at 206 nm and also spectrum curves for each sample were collected and analysed.

[2] = Binding of fluorescent IP-10 short peptides to titanium foils, fluorescence microscope (Experiment 3); conditions: FITC-labeled peptides 50 μg/ml, 8×8 mm Ti foils, 3 h room temperature, FIG. 7
Protocol: 5 mg of the different peptides (Table 3), which were labeled with fluorescein isothiocyanate, were dissolved with 1 ml of water with molecular biology degree (Sigma-Aldrich, St. Louis, Mo., USA). Working solutions of the different peptides were diluted further with PBS (PAA Laboratories GmbH, Pasching, Austria) to 50 μg/ml. Briefly, 500 μl of peptide solution was incubated with 8×8 mm Ti foils (Sigma Aldrich, thickness 0.127 mm, 99.7%, cut into 8×8 mm^2 samples) in an orbital shaker (IKA Vibrax VXR basic, Staufen, Germany) for 3 h at room temperature. Experiments were run in duplicate.
Ti foils were rinsed twice with PBS to remove unbound labeled peptides. Remaining liquid was allowed to dry and samples were put on microscope slides. […] Two images of each surface were taken.

[3] = Binding of IP-10 derived peptides to TiO2 P90, absorbance at 206 nm (Experiment 1); conditions: 50 μg/mL peptide in PBS, 20 mg TiO2 P90, 3 h room temperature, FIG. 3
Protocol: This experiment was conducted to find the exact region of the IP-10 molecule that binds to titanium. In this experiment the effect of TiO2 (diameter ˜14 nm, product number P 90, Aerosil Evonic Ind.) on peptides synthesized from the IP-10 molecule by absorbance measurements using a Spektro U29-10 Hitachi spectrophotometer.
Seventeen different peptides having sequences of various portion of IP-10 were dissolved in water and thereafter diluted to working solution (50 μg/mL) in phosphate buffered saline (PBS), see Table 1 and FIG. 2.
The absorbance of the peptides bound to TiO2 surfaces P90 from Sigma-Aldrich) were measured at 206 nm using a Spektro U29-10 Hitachi spectrophotometer. Briefly, 20 mg TiO2 (P90) was incubated with 250 μl of peptide solution. After 3 h incubation on a shaking device in room temperature, with vortexing every hour, the samples were centrifuged (13 000×g, 3 min) and the supernatant was collected. As a negative control, PBS alone was used and positive control was peptide solution alone. Every sample was made in double and the experiments were repeated.

[4] = Binding of IP-10 derived short peptides to nanoparticles, absorbance at 206 nm (Experiment 7); conditions: 50 μg/ml peptide, 3 h room temperature, FIG. 14; for binding to TiO2 nanoparticles: 25 mg TiO2 21 nm; for binding to SiO2 particles: 25 mg SiO2 10-20 nm
Protocol: Lyophilized peptides were dissolved with water (Sigma, molecular biology degree) to a concentration of 5 mg/ml (Table 6). Working solutions of the different peptides were diluted further with PBS (PAA laboratories) to 50 μg/ml. 25 mg of TiO2 (Titanium(IV) oxide nanopowder, 21 nm particle size, catalog number 718467, Sigma-Aldrich), SiO2 (Silicon dioxide nanopowder, 10-20 nm particle size, catalog number […], Sigma-aldrich), MgO (Magnesium oxide nanopowder, <50 nm particle size, catalog number 549649, Sigma-Aldrich) were used for the studies. Briefly, 250 μl of peptide solution containing 50 μg/ml was incubated with 25 mg of the materials in an orbital shaker for 3 h at room temperature. Different controls were used and processed in parallel with the other samples: solutions with peptides alone, PBS alone and TiO2/SiO2/MgO in PBS. After this time, all the samples were centrifuged at 13.000×g for 3 min at 20° C. 100 μl of the supernatant solution was carefully collected and placed in a 96-well UV plate and read with PowerWave™ microplate spectrophotometer from BioTek. Absorbances at 206 nm and also spectrum curves for each sample were collected and analyzed.

[5] = system: integrin β3; assay: Immunocytochemistry of integrin β3 in MC3T3-E1 cells on peptide-coated Ti; assay type: cell-based; conditions: FIG. 12; for integrin β3 staining: after 72 h of culture
Protocol: (§1) Under aseptic conditions, implants were immersed in a 3:7 (v/v) HNO3-DI water solution for 30 min at room temperature. Then, they were rinsed with milliQ water and placed in a covered milliQ water bath for 24 h. Implants were dried with N2 and were placed in a 96-well plates. Then, 200 μl of 50 μg/ml peptide solutions in PBS were added to each implant. Adsorption took place for 24 h at 37° C. in a humidified atmosphere. After 24 h peptide solutions were collected and surfaces were washed with 200 μl of PBS and air-dried in order to perform in vitro experiments.
(§2) MC3T3-E1 cells were routinely cultured at 37° C. in a humidified atmosphere of 5% CO2, and maintained in α-MEM supplemented with 10% FBS and antibiotics (50 IU penicillin/ml and 50 μg streptomycin/ml). 7.0×10^3 cells were seeded on the peptide-coated implants. Trypan blue stain was used to determine total and viable cell number. The same number of cells was cultured in parallel in plastic culture plates in the experiment. All experiments were performed after 4 passages of the MC3T3-E1 cells.
Cells grown for 24 and 72 h on the surfaces were fixed for 15 min with 4% formaldehyde in PBS at room temperature. Cells were incubated with 0.1% Triton X-100 for 5 min, 1% bovine serum albumin for 30 min and then with anti-integrin beta-3 antibody for 1 h at 1:50 dilution in PBS. Then, a Cy3-conjugated goat anti-rabbit IgG was used as secondary antibody for 1.5 h at 1:200 dilution in PBS. For actin cytoskeleton visualization, cells were stained with phalloidin-FITC 5 μg/mL in PBS for 30 min. Cells were washed with PBS and coin-shaped samples were placed on slides. Finally, a drop of Fluoroshield with DAPI was added and cover glasses were mounted on the samples. Two samples of each group were used to perform the experiment and two images of each sample were taken with the confocal microscope (Leica DMI 4000B equipped with Leica TCS SPE laser system).

[6] = system: MC3T3-E1 cells; assay: DNA quantification (cell number) of cells on peptide-coated Ti; assay type: cell-based; conditions: 48 h culture on Ti coated with 50 μg/ml peptide, FIG. 9
Protocol: as §1, with “Absorption” for “Adsorption”, “cell” for “in vitro”, “experiments. The surfaces were denoted Ti (uncoated Ti), P1 (Ti coated with IP10-RGD), P2 (Ti coated with IP10mut-RGD), P3 (Ti coated with IP10-RGDmut) and P4 (Ti coated with IP10mut-RGDmu).” for “experiments.”
as §2, with “α-minimum essential medium (α-MEM)” for “α-MEM”, “fetal bovine serum (FBS)” for “FBS”, “15” for “4”
Culture media was removed from wells and plates were frozen at −80° C. until the experiment was carried out. At the day of analysis, 100 μl of distilled water were added to each well. Plates were incubated for 1 hour at room temperature. Again, plates were frozen at −80° C. to lysate cells. Plates were thawed until reaching room temperature and 100 μl of Hoechst 33258 at 20 μg/ml in THE buffer were added. Then, 200 μl aliquots were transferred to 96-well fluorescence plates and a spectrophotometer was set to record fluorescence. Relative fluorescence units were correlated with the cell number using a linear standard curve.

binding to TiO2 particles (in words) [1]: very strong binding
Substance: ATMKK (listed as Homo sapiens) [IP1]

binding to TiO2 particles (in words) [1]: very strong binding
Substance: KKGEI (IP-10 derived peptide) [IP5]

binding to TiO2 nanoparticles [4]: higher binding | binding to TiO2 particles (in words) [1]: very strong binding
Substance: KKKGE (listed as Homo sapiens) [IP4]

binding to TiO2 nanoparticles [4]: higher binding | binding to TiO2 particles (in words) [1]: very strong binding
Substance: MKKKG (listed as Homo sapiens) [IP3]

signal from the fluorescent peptides bound to Ti [2]: lowest
Substance: PESCF (Randomized tag sequence) [IP10r]

binding to TiO2 nanoparticles [4]: higher binding
Substance: TMKKK (listed as Homo sapiens) [IP2]
binding to TiO2 particles (in words) [1]: very strong binding; also recorded: best binding sequence

More lines, now with the values behind:

Substance: FCSEPKKKMT (IP-10 derived peptide linked to randomized tag sequence) [IP10b]
signal from the fluorescent peptides bound to Ti [2]: lower than for IP10 but higher than for IP10r

Substance: IIATMKKKGEKRCLNPESKA (listed as Homo sapiens) [Peptide 5]
binding to TiO2 P90 (percentage of peptides absorbed, ranking) [3]: bound most

Substance: IKNLLKAVSKERSKRSP (listed as Homo sapiens) [Peptide 6]
binding to TiO2 P90 (percentage of peptides absorbed, ranking) [3]: bound most

Substance: KRCLN (listed as Homo sapiens) [IPE]
binding to SiO2 particles [4]: binding | binding to TiO2 nanoparticles [4]: binding

Substance: MKKKGEGGGGGGGGRGES (IP-10 derived peptide connected to mutated RGD motif via poly-G-linker) [Peptide P3]
integrin β3 signal ([5]; after 24 h of culture): showed integrin β3 signal | integrin β3 staining [5]: no clear staining; also recorded: disappeared

Substance: MTTTGEGGGGGGGGRGDS (Mutated IP-10 derived peptide connected to RGD motif via poly-G-linker) [Peptide P2]
integrin β3 staining [5]: no clear staining

Substance: MTTTGEGGGGGGGGRGES (Mutated IP-10 derived peptide connected to mutated RGD motif via poly-G-linker) [Peptide P4]
integrin β3 staining [5]: no clear staining | number of cells (DNA quantification) [6]: lowest | number of cells (DNA quantification) ([6]; listed as double mutant peptide sequence): lastly

Substance: RCLNP (listed as Homo sapiens) [IPF]
binding to SiO2 particles [4]: binding | binding to TiO2 nanoparticles [4]: binding

Substance: TMKKKPESCF (IP-10 derived peptide linked to randomized tag sequence) [IP10a]
signal from the fluorescent peptides bound to Ti [2]: lower than for IP10 but higher than for IP10r
